Measurements taken from PMC6874179, “Development of Macrocycle Kinase Inhibitors for ALK2 Using Fibrodysplasia Ossificans Progressiva‐Derived Endothelial Cells” (JBMR Plus, 2019).

Key:
[1] = test system: caALK6; experiment: BRE-LUC with constitutive active ALK6 in C2C12 cells; type: cell-based; settings: compound 0.5μM 16 hours
Experimental: (§1) Compounds were added for 16 hours at 0.5μM before luciferase activity was measured.
(§2) For luciferase reporter assays, cells were seeded in 24-well plates and transfected with DharmaFECT Duo (Fisher Scientific, Landsmeer, The Netherlands), following the recommendations of the manufacturer. 48 hours after transfection the cells were harvested and lysed. […] Each transfection mixture was equalized with empty vector when necessary and every experiment was performed in triplicate.

[2] = biological target: T1, caALK1 (Homo sapiens, UniProt P37023, Q201D); experiment: BRE-LUC with constitutive active ALK1 in C2C12 cells; type: cell-based; settings: compound 0.5μM 16 hours
T1 construct: expressed in transfected cells; host or cells: C2C12 murine myofibroblast cells
T1 sequence (P37023 22-503 Q201D): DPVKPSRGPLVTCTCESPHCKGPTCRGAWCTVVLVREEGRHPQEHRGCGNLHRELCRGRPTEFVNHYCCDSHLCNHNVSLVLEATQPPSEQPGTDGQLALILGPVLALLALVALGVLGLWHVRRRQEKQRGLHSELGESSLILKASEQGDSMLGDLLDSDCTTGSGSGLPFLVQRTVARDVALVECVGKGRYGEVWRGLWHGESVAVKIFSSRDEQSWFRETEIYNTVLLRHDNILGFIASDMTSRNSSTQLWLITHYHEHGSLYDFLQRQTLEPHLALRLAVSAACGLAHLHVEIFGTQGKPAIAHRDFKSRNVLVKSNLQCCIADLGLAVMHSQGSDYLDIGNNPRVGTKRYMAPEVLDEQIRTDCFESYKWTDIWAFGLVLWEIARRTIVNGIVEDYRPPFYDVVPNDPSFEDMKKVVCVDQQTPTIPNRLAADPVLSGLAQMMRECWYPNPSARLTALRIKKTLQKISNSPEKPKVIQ
Experimental: as §1, §2

[3] = biological target: T2, DDR2_T654M (Homo sapiens, UniProt Q16832, T654M); experiment: Proqinase Kinase profiling; type: biochemical; settings: read-out: % inhibition at 100nM
T2 construct: purchased DiscoverX

[4] = biological target: T3, CDK6_cyclinD3 (Homo sapiens, UniProt Q00534); experiment: Proqinase Kinase profiling; type: biochemical; settings: read-out: % inhibition at 100nM
T3 construct: purchased DiscoverX

[5] = biological target: T4, MAP2K5 (Homo sapiens, UniProt Q13163); experiment: Proqinase Kinase profiling; type: biochemical; settings: read-out: % inhibition at 100nM
T4 construct: purchased DiscoverX

[6] = biological target: T5, MAP2K7 (Homo sapiens, UniProt O14733); experiment: Proqinase Kinase profiling; type: biochemical; settings: read-out: % inhibition at 100nM
T5 construct: purchased DiscoverX
T5 sequence (O14733 whole entry): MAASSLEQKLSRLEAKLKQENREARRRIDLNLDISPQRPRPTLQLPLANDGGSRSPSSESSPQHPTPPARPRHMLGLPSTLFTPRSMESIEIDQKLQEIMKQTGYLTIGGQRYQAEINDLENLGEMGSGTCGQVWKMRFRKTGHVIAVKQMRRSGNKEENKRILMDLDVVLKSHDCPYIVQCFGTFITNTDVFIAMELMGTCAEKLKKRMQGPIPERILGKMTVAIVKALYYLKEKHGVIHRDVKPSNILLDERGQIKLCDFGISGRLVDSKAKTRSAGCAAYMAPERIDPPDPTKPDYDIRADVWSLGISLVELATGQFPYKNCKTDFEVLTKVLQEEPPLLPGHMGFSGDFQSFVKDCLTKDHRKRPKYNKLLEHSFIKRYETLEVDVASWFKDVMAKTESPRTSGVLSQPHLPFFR

[7] = biological target: T6, MLK4 (Homo sapiens, UniProt Q5TCX8); experiment: Proqinase Kinase profiling; type: biochemical; settings: read-out: % inhibition at 100nM
T6 construct: purchased DiscoverX

[8] = biological target: T7, VRK2 (Homo sapiens, UniProt Q86Y07); experiment: Proqinase Kinase profiling; type: biochemical; settings: read-out: % inhibition at 100nM
T7 construct: purchased DiscoverX

[9] = biological target: T8, TTBK1 (Homo sapiens, UniProt Q5TCY1); experiment: Proqinase Kinase profiling; type: biochemical; settings: read-out: % inhibition at 100nM
T8 construct: purchased DiscoverX

[10] = biological target: T9, DDR2_N456S (Homo sapiens, UniProt Q16832, N456S); experiment: Proqinase Kinase profiling; type: biochemical; settings: read-out: % inhibition at 100nM
T9 construct: purchased DiscoverX

[11] = biological target: T10, PKN3 (Homo sapiens, UniProt Q6P5Z2); experiment: Proqinase Kinase profiling; type: biochemical; settings: read-out: % inhibition at 100nM
T10 construct: purchased DiscoverX

[12] = biological target: T11, PKMYT1 (Homo sapiens, UniProt Q99640); experiment: Proqinase Kinase profiling; type: biochemical; settings: read-out: % inhibition at 100nM
T11 construct: purchased DiscoverX
T11 sequence (Q99640 whole entry): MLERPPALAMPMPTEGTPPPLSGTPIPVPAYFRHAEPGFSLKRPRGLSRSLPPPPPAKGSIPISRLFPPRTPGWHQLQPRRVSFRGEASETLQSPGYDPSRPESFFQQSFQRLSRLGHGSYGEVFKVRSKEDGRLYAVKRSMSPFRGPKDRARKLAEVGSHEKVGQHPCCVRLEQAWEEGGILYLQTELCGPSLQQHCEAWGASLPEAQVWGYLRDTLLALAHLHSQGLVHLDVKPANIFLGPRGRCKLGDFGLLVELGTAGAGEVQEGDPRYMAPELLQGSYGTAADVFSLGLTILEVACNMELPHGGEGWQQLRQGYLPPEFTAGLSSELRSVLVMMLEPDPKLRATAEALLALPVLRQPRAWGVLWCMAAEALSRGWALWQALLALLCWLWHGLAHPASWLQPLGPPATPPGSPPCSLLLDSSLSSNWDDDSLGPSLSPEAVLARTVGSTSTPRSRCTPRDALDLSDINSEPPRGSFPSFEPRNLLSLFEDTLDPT

[13] = biological target: T12, ALK_F1174L/NPM1 (Homo sapiens, UniProt P06748+Q9UM73, F1174L); experiment: Proqinase Kinase profiling; type: biochemical; settings: read-out: % inhibition at 100nM
T12 construct: purchased DiscoverX
T12 sequence (P06748+Q9UM73 fused Q9UM73:F1174L): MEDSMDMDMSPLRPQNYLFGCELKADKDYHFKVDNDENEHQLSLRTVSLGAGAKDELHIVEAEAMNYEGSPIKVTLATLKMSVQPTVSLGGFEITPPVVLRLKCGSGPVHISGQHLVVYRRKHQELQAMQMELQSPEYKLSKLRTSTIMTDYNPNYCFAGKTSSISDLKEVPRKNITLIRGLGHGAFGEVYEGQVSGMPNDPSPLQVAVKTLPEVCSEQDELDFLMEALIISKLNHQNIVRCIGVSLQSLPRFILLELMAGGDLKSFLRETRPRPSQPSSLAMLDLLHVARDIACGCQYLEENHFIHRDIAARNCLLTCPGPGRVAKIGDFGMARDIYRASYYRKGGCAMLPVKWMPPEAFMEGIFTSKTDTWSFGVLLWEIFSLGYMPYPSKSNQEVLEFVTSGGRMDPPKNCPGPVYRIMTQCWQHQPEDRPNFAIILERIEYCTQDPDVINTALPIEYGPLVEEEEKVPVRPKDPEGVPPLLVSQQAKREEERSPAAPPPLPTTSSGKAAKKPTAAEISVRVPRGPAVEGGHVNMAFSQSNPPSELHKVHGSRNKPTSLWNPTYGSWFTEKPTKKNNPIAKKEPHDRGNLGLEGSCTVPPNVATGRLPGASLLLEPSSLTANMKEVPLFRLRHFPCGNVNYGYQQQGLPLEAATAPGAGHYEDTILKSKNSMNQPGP

[14] = biological target: T13, EPHA6 (Homo sapiens, UniProt Q9UF33); experiment: Proqinase Kinase profiling; type: biochemical; settings: read-out: % inhibition at 100nM
T13 construct: purchased DiscoverX

[15] = biological target: T14, TTBK2 (Homo sapiens, UniProt Q6IQ55); experiment: Proqinase Kinase profiling; type: biochemical; settings: read-out: % inhibition at 100nM
T14 construct: purchased DiscoverX
T14 sequence (Q6IQ55 whole entry): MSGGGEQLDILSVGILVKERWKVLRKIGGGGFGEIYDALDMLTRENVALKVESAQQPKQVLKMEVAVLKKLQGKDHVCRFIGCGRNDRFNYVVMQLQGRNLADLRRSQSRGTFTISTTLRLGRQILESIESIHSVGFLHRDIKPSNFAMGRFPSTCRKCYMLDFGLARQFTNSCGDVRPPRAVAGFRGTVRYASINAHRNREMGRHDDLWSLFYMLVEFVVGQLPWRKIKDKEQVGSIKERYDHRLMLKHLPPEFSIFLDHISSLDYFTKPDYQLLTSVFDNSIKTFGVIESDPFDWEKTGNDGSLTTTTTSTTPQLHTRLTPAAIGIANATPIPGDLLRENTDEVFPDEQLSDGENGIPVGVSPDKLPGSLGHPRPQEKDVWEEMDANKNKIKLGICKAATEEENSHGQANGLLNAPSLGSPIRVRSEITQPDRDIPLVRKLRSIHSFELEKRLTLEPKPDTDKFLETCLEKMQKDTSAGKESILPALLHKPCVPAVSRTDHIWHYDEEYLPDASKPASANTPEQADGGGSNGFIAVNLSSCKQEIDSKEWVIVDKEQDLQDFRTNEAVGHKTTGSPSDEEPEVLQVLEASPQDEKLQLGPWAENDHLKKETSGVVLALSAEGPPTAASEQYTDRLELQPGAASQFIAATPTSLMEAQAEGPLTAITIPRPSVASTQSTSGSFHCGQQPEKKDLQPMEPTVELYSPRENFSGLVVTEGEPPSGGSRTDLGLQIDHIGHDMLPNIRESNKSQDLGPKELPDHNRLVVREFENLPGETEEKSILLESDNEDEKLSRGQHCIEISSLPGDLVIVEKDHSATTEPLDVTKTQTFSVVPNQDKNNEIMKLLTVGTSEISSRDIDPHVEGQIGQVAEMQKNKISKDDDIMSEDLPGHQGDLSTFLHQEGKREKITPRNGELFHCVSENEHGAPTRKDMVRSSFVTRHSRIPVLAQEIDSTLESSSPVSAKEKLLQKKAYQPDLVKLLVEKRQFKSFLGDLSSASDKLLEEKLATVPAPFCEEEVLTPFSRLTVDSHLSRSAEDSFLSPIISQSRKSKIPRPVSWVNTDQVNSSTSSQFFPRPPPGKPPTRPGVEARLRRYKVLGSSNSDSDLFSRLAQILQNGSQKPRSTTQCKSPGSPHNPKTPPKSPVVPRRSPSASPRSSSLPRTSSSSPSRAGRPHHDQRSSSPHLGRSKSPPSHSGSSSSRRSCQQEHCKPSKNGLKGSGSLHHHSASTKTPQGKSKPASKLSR

[16] = biological target: T15, SIK1 (Homo sapiens, UniProt P57059); experiment: Proqinase Kinase profiling; type: biochemical; settings: read-out: % inhibition at 100nM
T15 construct: purchased DiscoverX

[17] = biological target: T16, BUB1B (Homo sapiens, UniProt O60566); experiment: Proqinase Kinase profiling; type: biochemical; settings: read-out: % inhibition at 100nM
T16 construct: purchased DiscoverX

[18] = biological target: T17, CAMK2G (Homo sapiens, UniProt Q13555); experiment: Proqinase Kinase profiling; type: biochemical; settings: read-out: % inhibition at 100nM
T17 construct: purchased DiscoverX

[19] = biological target: T18, BRSK2 (Homo sapiens, UniProt Q8IWQ3); experiment: Proqinase Kinase profiling; type: biochemical; settings: read-out: % inhibition at 100nM
T18 construct: purchased DiscoverX

[20] = biological target: T19, MAP2K4 (Homo sapiens, UniProt P45985); experiment: Proqinase Kinase profiling; type: biochemical; settings: read-out: % inhibition at 100nM
T19 construct: purchased DiscoverX
T19 sequence (P45985 whole entry): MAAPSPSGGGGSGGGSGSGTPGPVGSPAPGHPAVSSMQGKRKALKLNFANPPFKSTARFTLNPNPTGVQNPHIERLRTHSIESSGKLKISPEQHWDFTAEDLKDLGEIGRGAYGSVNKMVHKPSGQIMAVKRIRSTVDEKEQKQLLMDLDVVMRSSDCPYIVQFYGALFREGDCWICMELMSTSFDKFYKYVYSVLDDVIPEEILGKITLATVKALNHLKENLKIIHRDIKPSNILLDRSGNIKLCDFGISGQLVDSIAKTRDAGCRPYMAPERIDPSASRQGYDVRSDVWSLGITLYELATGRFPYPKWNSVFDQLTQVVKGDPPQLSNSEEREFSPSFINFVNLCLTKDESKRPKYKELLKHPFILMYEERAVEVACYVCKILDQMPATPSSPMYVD

[21] = biological target: T20, CDC7_DBF4 (Homo sapiens, UniProt O00311); experiment: Proqinase Kinase profiling; type: biochemical; settings: read-out: % inhibition at 100nM
T20 construct: purchased DiscoverX
T20 sequence (O00311 whole entry): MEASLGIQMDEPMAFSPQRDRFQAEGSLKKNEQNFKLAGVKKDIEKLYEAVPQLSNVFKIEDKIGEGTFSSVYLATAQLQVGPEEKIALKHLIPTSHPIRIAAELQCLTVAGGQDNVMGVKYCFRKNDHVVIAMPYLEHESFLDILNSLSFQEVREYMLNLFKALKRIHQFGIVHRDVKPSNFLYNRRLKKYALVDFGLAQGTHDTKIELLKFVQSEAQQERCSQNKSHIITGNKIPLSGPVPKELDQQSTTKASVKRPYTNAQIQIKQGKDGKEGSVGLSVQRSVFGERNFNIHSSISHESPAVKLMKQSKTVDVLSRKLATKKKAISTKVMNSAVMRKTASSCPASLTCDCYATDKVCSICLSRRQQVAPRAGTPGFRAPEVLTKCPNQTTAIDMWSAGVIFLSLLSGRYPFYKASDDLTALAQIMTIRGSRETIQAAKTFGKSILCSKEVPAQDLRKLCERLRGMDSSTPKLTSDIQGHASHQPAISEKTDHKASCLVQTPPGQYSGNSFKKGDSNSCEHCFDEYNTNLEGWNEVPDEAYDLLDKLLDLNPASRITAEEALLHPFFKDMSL
T20 sequence (Q9UBU7 whole entry partner): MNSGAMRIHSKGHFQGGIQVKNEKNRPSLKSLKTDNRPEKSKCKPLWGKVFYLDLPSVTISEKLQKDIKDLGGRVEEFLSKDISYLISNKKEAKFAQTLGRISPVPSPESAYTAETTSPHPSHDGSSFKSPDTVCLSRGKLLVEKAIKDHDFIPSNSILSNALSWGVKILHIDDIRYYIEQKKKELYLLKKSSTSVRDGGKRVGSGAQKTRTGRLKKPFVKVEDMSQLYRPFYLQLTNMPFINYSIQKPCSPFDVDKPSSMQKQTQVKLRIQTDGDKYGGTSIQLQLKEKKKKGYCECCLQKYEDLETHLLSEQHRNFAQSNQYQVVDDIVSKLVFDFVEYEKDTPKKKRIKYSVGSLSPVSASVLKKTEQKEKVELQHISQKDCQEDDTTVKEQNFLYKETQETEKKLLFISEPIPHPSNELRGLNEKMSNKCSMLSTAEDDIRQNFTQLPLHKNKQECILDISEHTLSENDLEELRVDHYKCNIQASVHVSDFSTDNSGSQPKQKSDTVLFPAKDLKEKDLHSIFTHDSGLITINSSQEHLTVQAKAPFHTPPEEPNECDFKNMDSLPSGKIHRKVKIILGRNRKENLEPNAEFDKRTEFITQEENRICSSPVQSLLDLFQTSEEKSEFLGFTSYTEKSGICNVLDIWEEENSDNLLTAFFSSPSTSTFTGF

c1ccc2c(-c3cnn4cc(-c5ccc(N6CCNCC6)cc5)cnc34)ccnc2c1 [LDN-193189, reference compound]
Inhibition of caALK6-driven BRE-LUC activity [1]: significantly inhibited
Inhibition of caALK1-driven BRE-LUC activity [2]: significantly inhibited

Cc1cc2cc(c1)-c1cnn3ccc(nc13)NCCNC(=O)CCN(C)C2 [OD52]
inhibition at 0.1 µM [3]: 15%
inhibition at 0.1 µM [4]: -7%
inhibition at 0.1 µM [5]: -9%
inhibition at 0.1 µM [6]: 4%
inhibition at 0.1 µM [7]: -11%
inhibition at 0.1 µM [8]: 6%
inhibition at 0.1 µM [9]: 8%
inhibition at 0.1 µM [10]: 33%
inhibition at 0.1 µM [11]: 16%
inhibition at 0.1 µM [12]: 6%
inhibition at 0.1 µM [13]: -16%
inhibition at 0.1 µM [14]: -12%
inhibition at 0.1 µM [15]: 4%
inhibition at 0.1 µM [16]: -2%
inhibition at 0.1 µM [17]: -10%
inhibition at 0.1 µM [18]: 10%
inhibition at 0.1 µM [19]: -13%
inhibition at 0.1 µM [20]: 17%
inhibition at 0.1 µM [21]: 6%
